Results from US20030068275A1, “Coordination complexes for detecting analytes, and methods of making and using the same” (priority 2001, published 2003).

Assay: Detection of nitric oxide with the [Co2(O2CAr^Tol)4(dansylpiperazine)2] fluorescent sensor
Details: for peak emission intensity wavelength: CH2Cl2, excited at 350 nm
Protocol: Detection of Nitric Oxide with the [Co2(O2CAr^Tol)4(dansylpiperazine)2Fluorescent Sensor. It is believed that in solution [Co2(O2CAr^Tol)4(dansylpiperazine)2] is in equilibrium between two species: the [Co2(μ-O2CAr^Tol)4(dansylpiperazine)2] (paddle-wheel) isomer and the [Co2(μ-O2CAr^Tol)2(O2CAr^Tol)2(dansylpiperazine)2] (windmill) isomer. […] The ability of the [Co2(O2CAr^Tol)4(dansylpiperazine)2] system to act as a nitric oxide sensor was tested. […] The exact reaction that occurs in this experiment has not yet been determined.
The fluorescence response of [Co2(O2CAr^Tol)4(dansylpiperazine)2] after exposure to excess NO in CH2Cl2 was measured spectroscopically. Solutions were excited at 350 nm and the emission spectrum recorded. The peak emission intensity is at 503 nm before exposure NO, but shifts to 513 nm after exposure to NO. Emission spectra, shown in FIG. 5, were recorded at 0, 1, 5, 10, 20, 30, 40, 50, and 60 minutes post exposure to NO. A fluorescence increase of 9.6-fold was observed after 60 minutes.

Substance: [Co2(μ-O2CAr^Tol)4(dansylpiperazine)2] [[Co2(O2CAr^Tol)4(dansylpiperazine)2]]
- fluorescence increase (CH2Cl2, excess NO, excited at 350 nm, after 60 minutes): 9.6 fold
- peak emission intensity wavelength (after exposure to excess NO): 513 nm
- peak emission intensity wavelength (before exposure to NO): 503 nm
- fluorescence in the absence of nitric oxide (solution in dichloromethane, before NO (FIG. 4b, left)): little to no fluorescence
- fluorescence change after exposure to nitric oxide (solution in dichloromethane, excess NO (FIG. 4b, right)): increase in fluorescence
